This note sets out measurements from the Deep4Chem optical property database.

The data set is described as follows: photoluminescence quantum yield (fraction); solvent given as SMILES.

Where the note is “in Cc1ccccc1”, `COc1ccc(N(c2ccc(C=C(c3ccccc3)c3ccccc3)cc2)c2ccc(OC)cc2)cc1` showed a photoluminescence quantum yield of 0.01.
For the setting “in O=P(c1ccccc1)(c1ccccc1)c1ccccc1Oc1ccccc1P(=O)(c1ccccc1)c1ccccc1”, `c1ccc(-c2nc(-c3ccccc3)nc(-c3cc(-n4c5ccccc5c5ncccc54)c(-n4c5ccccc5c5ccccc54)c(-n4c5ccccc5c5ncccc54)c3)n2)cc1` came in with a photoluminescence quantum yield of 0.85.
As for `C[Si](C)(c1cccc2ccccc12)[Si](C)(C)c1c2ccccc2cc2ccccc12`, the photoluminescence quantum yield was 0.67 (in C1CCCCC1) and 0.21 (in CC#N).
`C=CB1C=Cc2ccc3ccccc3c2N1`: the photoluminescence quantum yield (in C1CCCCC1) is 0.42.
In turn, `CC1=[N+]2C(=C(c3ccc(N(C)C)cc3)c3ccc(C)n3[B-]2(F)F)C=C1` displayed a photoluminescence quantum yield (in C1CCCCC1) of 0.37; a photoluminescence quantum yield (in CC#N) of 0.008; a photoluminescence quantum yield (in CC(=O)C(C)(C)C) of 0.024; a photoluminescence quantum yield (in CC(C)=O) of 0.006; a photoluminescence quantum yield (in CCCCCC) of 0.376; a photoluminescence quantum yield (in CO) of 0.03. The photoluminescence quantum yield was found to be 0.15 (in Cc1ccccc1) and 0.058 (in ClC(Cl)Cl).
For the compound `C=CCNS(=O)(=O)c1ccc2c(c1)C(=O)/C(=C1\Sc3ccc(S(=O)(=O)NCC=C)cc3C1=O)S2`, the photoluminescence quantum yield reads like this: (in CN(C)C=O) 0.197; (in CS(C)=O) 0.006.
The compound `Cc1cccc2c1nc1c(=O)n(C)c(=O)nc-1n2C` displayed a photoluminescence quantum yield (in CC#N) of 0.14.
Compound `CCCC1(CCC)c2cc(C#N)ccc2-c2ccc(C#N)cc21` displayed a photoluminescence quantum yield (in C1CCCCC1) of 0.32.
In the case of `O=c1c2cc(F)c(O)cc2oc2cc(N3CCCCC3)c(F)cc12`, the photoluminescence quantum yield (in CCO) turned out to be 0.23.
For `CCCCCCC(CCCCCC)N1C(=O)c2cccc3c(-c4ccc([Si](C)(C)C)cc4)ccc(c23)C1=O`, the photoluminescence quantum yield by setting is: (in CCCCCC) 0.14; (in CCCCCCCCCCCCCC) 0.18; (in CCCCCCCCCCCO) 0.85; (in CCCCO) 0.89; (in CN(C)C=O) 0.64; (in Cc1ccccc1) 0.51. Besides, the photoluminescence quantum yield (in ClC(Cl)Cl) turned out to be 0.79.
`COc1ccc(-c2csc(/C(C#N)=C/c3ccc(Cl)cc3Cl)n2)cc1` had a photoluminescence quantum yield (in CC#N) of 0.031.
As for `Cc1ccc(/C=C/c2nc(-c3ccc([N+](=O)[O-])cc3)[nH]c2/C=C/c2ccc(C)cc2)cc1`, the photoluminescence quantum yield (in ClCCl) was found to be 0.
Regarding `C1=Cc2ccccc2C(=Cc2ccc(-c3ccc(C=C4c5ccccc5-c5ccccc54)cc3)cc2)c2ccccc21`, under “in C1CCOC1”, the photoluminescence quantum yield is 0.00016.
`CCCCCCc1cc(-c2ccc3c(c2)C2CCCC2N3c2ccc3c(c2)C(C)(C)c2ccccc2-3)sc1/C=C1\C(=O)c2ccc(C(=O)O)cc2C1=O` (configuration not stated) returned a photoluminescence quantum yield (in ClC(Cl)Cl) of 0.24.
Same read-out and setting: to `CC(C)[Si](C#Cc1c2c(=O)c3ccccc3c2c(C#C[Si](C(C)C)(C(C)C)C(C)C)c2c(=O)c3ccccc3c12)(C(C)C)C(C)C` belongs 0.1.
On to `COC(=O)/C(C#N)=c1\s/c(=c2/s/c(=C(/C#N)C(=O)OC)c3cc(-c4ccc(C)cc4)sc23)c2sc(-c3ccc(C)cc3)cc12`, for which, under “in Cc1ccccc1”, the photoluminescence quantum yield turned out to be 0.325.
As for `Cc1ccc(C2=C3C=C(I)C=[N+]3[B-](F)(F)n3cc(I)cc32)cc1`, the photoluminescence quantum yield reads like this: (in C1CCCCC1) 0.012; (in CC#N) 0.005; (in CCO) 0.006; (in CCOC(C)=O) 0.007; (in CO) 0.005; (in OCC(F)(F)F) 0.006.
For the compound `F[B-]1(F)n2cccc2C(c2ccccc2)=C2C=CC(c3cccc(OC4=[N+]5C(=C(c6ccccc6)c6cc(Br)c(Br)n6[B-]5(F)F)C=C4Br)c3)=[N+]21`, where the note is “in ClC(Cl)Cl”, the photoluminescence quantum yield worked out at 0.28.
As to `COCCOCCOCCOCC(COCCOCCOCCOC)Oc1cc(/C=C/c2ccc(/C=C(\C#N)c3ccccn3)cc2)c(OC(COCCOCCOCCOC)COCCOCCOCCOC)cc1/C=C/c1ccc(/C=C(\C#N)c2ccccn2)cc1`, the photoluminescence quantum yield (in ClCCl) was determined as 0.64.
For the compound `Cc1c(C)n2c(COC(=O)CNC(=O)OC(C)(C)C)c(C)c(=O)n2c1=O`, the photoluminescence quantum yield (in CCO) amounted to 0.63.
`N#CC=C(c1ccc(N2c3ccccc3Oc3ccccc32)cc1)c1ccc(N2c3ccccc3Oc3ccccc32)cc1` yielded a photoluminescence quantum yield (in Cc1ccccc1) of 0.371.
For the setting “in ClCCl”, `CCCCC(CC)COc1ccc2nc(-c3ccc(-c4cccs4)s3)sc2c1` (configuration not stated) displayed a photoluminescence quantum yield of 0.2.
With `COc1ccc(C2=C/C(=C\c3ccc(C#N)cc3)C(=O)N2)cc1OC`, where the note is “in C1COCCO1”, the photoluminescence quantum yield was determined as 0.188.
`CC/[NH+]=c1\cc2oc3cc(NCCC(=O)NC(CCC(=O)OC)C(=O)OC)c4ccccc4c3nc-2cc1C` (configuration not stated) came in with a photoluminescence quantum yield (in CCO) of 0.48 and a photoluminescence quantum yield (in O) of 0.16.
Turning to `Cc1ccc(-c2nc(-c3ccc(-c4nc(-c5ccc(C)cc5)c(-c5ccc(C)cc5)[nH]4)cc3)[nH]c2-c2ccc(C)cc2)cc1`, the photoluminescence quantum yield (in CS(C)=O) came to 0.96.
In the case of `CCCCCCCCCCOc1cc(OCCCCCCCCCC)cc(C2=C3C(/C=C/c4ccc(OC)cc4)=CC(/C=C/c4ccc(OC)cc4)=[N+]3[B-](F)(F)n3c(/C=C/c4ccc(OC)cc4)cc(C=Cc4ccc(OC)cc4)c32)c1`, the photoluminescence quantum yield (in ClC(Cl)Cl) turned out to be 0.34.
Take `CC(=O)c1ccc(-c2nc3ccc(N(C)C)cc3s2)cc1`: the photoluminescence quantum yield reads like this: (in C1CCCCC1) 0.88; (in CC#N) 0.88; (in CO) 0.041; (in ClC(Cl)Cl) 0.99.
Consider `CN1/C(=C/C=C(/C=C/c2sc3ccccc3[n+]2C)c2ccc(F)cc2)Sc2ccccc21`, for which the photoluminescence quantum yield came out at 0.1 (in CCO), 0.09 (in CO) and 0.14 (in CS(C)=O).
In the case of `N#C/C(=C/Nc1ccc(C#N)cc1)c1nc(-c2ccccc2)cs1`, the photoluminescence quantum yield reads like this: (in CC#N) 0; (in CCO) 0.0001; (in CN(C)C=O) 0.0001; (in Cc1ccccc1) 0.0001; (in ClCCl) 0.0001.
For the compound `COC(=O)C(Cc1ccc2oc(-c3ccc(N(c4ccccc4)c4ccccc4)cc3)nc2c1)NC(=O)OC(C)(C)C` (configuration not stated), the photoluminescence quantum yield turned out to be 0.87 (in C1CCCCC1); 0.77 (in C1CCOC1); 0.47 (in C1COCCO1); 0.94 (in CC1CCCCC1); 0.67 (in CC1COC(=O)O1); 0.62 (in CC#N). The compound further yielded a photoluminescence quantum yield (in CC(C)=O) of 0.68; a photoluminescence quantum yield (in CC(C)O) of 0.77; a photoluminescence quantum yield (in CC(O)CO) of 0.63; a photoluminescence quantum yield (in CCCCCC) of 0.98; a photoluminescence quantum yield (in CCCCCCCC) of 0.99; a photoluminescence quantum yield (in CCCCCO) of 0.76. For the same compound, the photoluminescence quantum yield by setting is: (in CCCCO) 0.87; (in CCO) 0.61; (in CCOC(C)=O) 0.8; (in CN(C)C=O) 0.72; (in CO) 0.42; (in COCCOC) 0.44. The photoluminescence quantum yield was 0.69 (in CS(C)=O); 0.88 (in ClC(Cl)Cl); 0.87 (in ClCCl); 0.26 (in N#Cc1ccccc1); 0.35 (in NC=O); 0.003 (in O). Further, the photoluminescence quantum yield (in OCC(F)(F)F) stood at 0.05.
Turning to `CN(C)c1ccc(/C=C/c2cnc(C#Cc3ccc(C#N)cc3)o2)cc1`, where the note is “in ClCCl”, the photoluminescence quantum yield was 0.24.
The compound `c1ccc(-c2cc(-c3ccccc3)cc(-c3ccc4c(c3)C3(c5cc(-c6cc(-c7ccccc7)cc(-c7ccccc7)c6)ccc5-4)c4ccccc4-c4c3c3c5ccccc5ccc3c3ccccc43)c2)cc1` displayed a photoluminescence quantum yield (in Cc1ccccc1) of 0.59.
As for `CCOC(=O)c1cc(C(=O)OCC)c2cc(NC)ccc2n1`, where the note is “in CCO”, the photoluminescence quantum yield is 0.47.
Turning to `CC(C)(C)NC(=O)c1cccc2ccc3c4ccc(Cl)cc4c4cc(Cl)ccc4c3c12`, the photoluminescence quantum yield (in ClCCl) came to 0.02.
Take `c1cc2ccc3ccc4cc3c2cc1c1ccc2ccc3ccc(cc3c2c1)c1ccc2ccc3ccc4cc3c2c1`: the photoluminescence quantum yield (in Cc1ccccc1) is 0.75.
On to `CCCCCCOc1ccc(-c2cnc(-c3nnc(-c4ccc(OCCCCCC)cc4)o3)o2)cc1`, for which the photoluminescence quantum yield is 0.82 (in C1CCCCC1); 0.57 (in C1CCOC1); 0.75 (in CC#N); 0.8 (in CCO); 0.65 (in CO); 0.49 (in ClC(Cl)Cl).
For the compound `F[B-]1(F)n2cccc2C(c2ccc(-c3c4ccccc4c(-c4ccccc4)c4ccccc34)cc2)=C2C=CC=[N+]21`, the photoluminescence quantum yield is, setting by setting: (in CC#N) 0.001; (in CCCCCC) 0.014; (in CCO) 0.003; (in CN(C)C=O) 0.002; (in Cc1ccccc1) 0.036; (in ClCCl) 0.002.
Regarding `Cc1cn(C)c(=O)nc1-n1cncn1`, the photoluminescence quantum yield (in O) is 0.071.
For the compound `F[B-]1(F)n2c(NCc3ccccc3)ccc2C(c2c(Cl)cccc2Cl)=C2C=CC(NCc3ccccc3)=[N+]21`, the photoluminescence quantum yield stood at 0.42 (in CC#N); 0.55 (in CCCCCC); 0.44 (in CCOC(C)=O); 0.5 (in CO); 0.52 (in ClCCl).
`c1ccc(C(=C(c2ccccc2)c2ccc(-c3nc4c(-c5ccc(C(=C(c6ccccc6)c6ccccc6)c6ccccc6)cc5)sc(-c5ccc(C(=C(c6ccccc6)c6ccccc6)c6ccccc6)cc5)c4nc3-c3ccc(C(=C(c4ccccc4)c4ccccc4)c4ccccc4)cc3)cc2)c2ccccc2)cc1`: the photoluminescence quantum yield was 0.267 (in Cc1ccccc1) and 0.109 (in ClCCl).
Take `O=P1(c2ccccc2)C(c2ccccc2)=Cc2ccccc21` (configuration not stated): the photoluminescence quantum yield (in C1CCOC1) is 0.3 and the photoluminescence quantum yield (in ClCCl) stood at 0.85.
In the case of `CCN(CC)c1ccc2cc(/C=C3\CCCc4c3[o+]c3cc(N(CC)CC)ccc3c4-c3ccccc3C(=O)O)c(=O)oc2c1`, under “in ClCCl”, the photoluminescence quantum yield is 0.07.
